Experimental data: patent publication US8530457B2, “Method for the treatment of lymphangioleiomyomatosis (LAM)” (Fox Chase Cancer Center, priority 2008, dated 2013)
Entries after “also recorded” stand apart in the source; their conditions may differ.

Assays:
ELT3 cells [1] = assay: Circulating and lung tumor cell DNA by rat-specific real-time PCR; format: in vivo, mice
Procedure: (§1) All animal work was performed in accordance with a protocol approved by the FCCC Institutional Animal Care and Use Committee. Male CB-17 scid mice, six weeks of age, were purchased from Fox Chase Cancer Center. Female ovariectomized CB17-scid mice, six to eight weeks of age, were purchased from Taconic (Hudson, N.Y.). One week prior to cell injection, 17-beta estradiol or control-placebo pellets (2.5 mg, 90-day release) (Innovative Research America, Sarasota, Fla.) were implanted. For xenograft tumor establishment, subconfluent ELT3 cells were harvested, washed in PBS, and resuspended in 0.2 ml of serum-free medium. Two millions ELT3 cells were injected into both flanks of the mouse subcutaneously. […] Lung metastases were scored from 3-5 five-micron H&E stained sections of each lobe at 40× magnification by observers blinded to the experimental conditions.
Mouse blood (0.5 mL) was collected at indicated times by intraocular bleed, and red blood cells were lysed before DNA extraction. At death, the lungs were dissected and stored at −80° C. for DNA extraction. Rat and mouse DNAs were quantified by using TaqMan-chemistry based real-time PCR assays. […] The primers amplify a LINE repeat element (AC087102). The assay for mouse is for the gene Anf. The sequences (all 5′ to 3′) for the primers and probes are:
PCR master mix from Eurogentec was used for PCR. Primers and probe concentrations were 500 and 100 nM, respectively. Cycling conditions were 95° C., 15 minutes followed by 40 (2-steps) cycles (95° C., 15 sec; 60° C., 60 sec). Reactions were run using an ABI 7900 HT instrument. Each sample was analyzed using two different amounts of input DNA. […] Bioluminescent Reporter Imaging

p42/44 MAPK [2] = assay: Immunoblot of phosphorylated p42/44 MAPK in ELT3 cells; format: cell-based, rat
Procedure: Prior to the in vitro experiments, cells were maintained in media supplemented with 10%-charcoal-stripped FBS for three days and then serum starved for 24 hours in serum-free and phenol red-free medium. E2 (10 nM, Sigma, St. Louis, Mo.) or PD98059 (50 μM, Cell Signaling Technology, Danvers, Mass.) was added to the cells as indicated.
(§2) Cells were rinsed once in ice-cold PBS and lysed in PTY buffer (50 mM Hepes, pH 7.5, 50 mM NaCl, 5 mM EDTA, 50 mM NaF, 10 mM Na4P2O7, and 1% Triton 100) supplemented with phosphatase inhibitors. Lysates were resolved by SDS-PAGE electrophoresis and transferred onto Immobilon P membranes (Millipore). Cytoplasmic and nuclear fractions were separated using CellLytic Nuclear Extraction Kit (Sigma) before electrophoresis. […] Western blots were developed using horseradish peroxidase-conjugated secondary antibodies and ECL chemiluminescence (Amersham Biosciences).

ribosomal protein S6 = assay: Immunoblot of phosphorylated ribosomal protein S6 in ELT3 cells; format: cell-based, rat; conditions: E2 stimulation
Procedure: (§3) ELT-3 cells (Eker rat uterine leiomyoma-derived smooth muscle cells) were cultured in IIA complete medium (DMEM/F12 basal media including 15% FBS, 0.2 μM hydrocortisone, 10 μU/mL vasopressin, 1×FeSO4, 10 ng/mL EGF, 1×ITS, 0.01 nM triiolythryonine, 0.12% sodium bicarbonate, 1× cholesterol and 1× penicillin/streptomycin) supplemented with 15% FBS. Prior to the in vitro experiments, cells were maintained in media supplemented with 10%-charcoal-stripped FBS for three days and then serum starved for 24 hours in serum-free and phenol red-free medium. E2 (10 nM, Sigma, St. Louis, Mo.) or PD98059 (50 μM, Cell Signaling Technology, Danvers, Mass.) was added to the cells as indicated.
(§4) Cells were rinsed once in ice-cold PBS and lysed in PTY buffer (50 mM Hepes, pH 7.5, 50 mM NaCl, 5 mM EDTA, 50 mM NaF, 10 mM Na4P2O7, and 1% Triton 100) supplemented with phosphatase inhibitors. Lysates were resolved by SDS-PAGE electrophoresis and transferred onto Immobilon P membranes (Millipore). Cytoplasmic and nuclear fractions were separated using CellLytic Nuclear Extraction Kit (Sigma) before electrophoresis. […]

ELT3 cells [3] = assay: Anoikis assay of ELT3 cells on PolyHEMA (caspase-3, DNA fragmentation, Bim, regrowth); format: cell-based, rat
Procedure: as §2
ELT3 cells were cultured with or without 10 nM E2 in serum-free and phenol red-free medium supplemented with 10% charcoal-stripped FBS for 24 hours. […] Cell death as a function of DNA fragmentation was detected using Cell Death Detection ELISA kit (Roche Diagnostics).
The surviving cells in suspension were plated in triplicate in 24-well plates and allowed to grow adherently for 24 hours. ^3H-thymidine (1 μCi) was added to the media and the cells were incubated at 37° C. for 6 hours, washed with PBS, and lysed in 0.5 mL of 0.5 N NaOH plus 0.5% SDS. ^3H-thymidine incorporation was measured by scintillation counting.

p42/44 MAPK [4] = assay: Phospho-p42/44 MAPK immunostaining of primary xenograft tumors; format: in vivo, mice; conditions: placebo 28%
Procedure: Sections were deparaffinized, incubated overnight with primary antibodies at 4° C. in a humidified chamber and then rinsed and incubated with biotinylated secondary antibodies for 30 minutes at room temperature. Slides were developed using the Broad Spectrum AEC Histostain-Plus (Invitrogen) or Histostain-Plus kit (Invitrogen), and they were counterstained with Gill's hematoxylin.
(§5) All animal work was performed in accordance with a protocol approved by the FCCC Institutional Animal Care and Use Committee. Male CB-17 scid mice, six weeks of age, were purchased from Fox Chase Cancer Center. Female ovariectomized CB17-scid mice, six to eight weeks of age, were purchased from Taconic (Hudson, N.Y.). One week prior to cell injection, 17-beta estradiol or control-placebo pellets (2.5 mg, 90-day release) (Innovative Research America, Sarasota, Fla.) were implanted. For xenograft tumor establishment, subconfluent ELT3 cells were harvested, washed in PBS, and resuspended in 0.2 ml of serum-free medium. Two millions ELT3 cells were injected into both flanks of the mouse subcutaneously. For metastatic and circulating tumor cells assays, 2×10^5 ELT3 or ELT3-Luc cells were resuspended in 0.1 ml PBS and injected into the lateral tail vein of mice. Lung metastases were scored from 3-5 five-micron H&E stained sections of each lobe at 40× magnification by observers blinded to the experimental conditions.

C-Raf = assay: Immunoblot of phosphorylated C-Raf/Raf-1 in ELT3 cells; format: cell-based, rat; conditions: E2 stimulation
Procedure: as §3, §4

[5] = tested on: tuberin-deficient ELT3 cells; assay: Subcutaneous ELT3 xenograft in CB17-scid mice: primary tumors and pulmonary metastases; format: in vivo
Procedure: as §5
CI-1040 (PD184352) was obtained from Pfizer (Ann Arbor, Mich.) and was prepared in a vehicle of 10% Cremophore EL (Sigma), 10% ethanol and 80% water. RAD001 was obtained from Novartis Pharma AG (Basel, Switzerland) and was diluted in double-distilled water. Drug were administered one day post cell inoculation at the following doses: RAD001 (4 mg/kg/day, gavage); CI-1040, (150 mg/kg/day gavage, twice a day)
Subcutaneous tumors were removed from animals upon sacrifice. Tumor weights were recorded, and tumor size was measured in two dimensions with calipers.
ELT3 cells were inoculated subcutaneously into the flanks of ovariectomized CB17-SCID mice, which were supplemented 1 week before with either placebo or E2 pellets (2.5 mg, 90-day release). Tumors arose in 100% of both estrogen and placebo-treated mice. […] The proliferative potential of ELT3 cells in vivo was examined using Ki-67 immunoreactivity.

ELT3 cells [6] = assay: ELT3 cell proliferation in response to E2, 3H-thymidine incorporation; format: cell-based, rat; conditions: day 5, E2 treatment vs control
Procedure: as §3
The surviving cells in suspension were plated in triplicate in 24-well plates and allowed to grow adherently for 24 hours. ^3H-thymidine (1 μCi) was added to the media and the cells were incubated at 37° C. for 6 hours, washed with PBS, and lysed in 0.5 mL of 0.5 N NaOH plus 0.5% SDS. ^3H-thymidine incorporation was measured by scintillation counting. […]

ELT3-luciferase cells = assay: Lung colonization of i.v. injected ELT3-luciferase cells, bioluminescent imaging; format: in vivo, mice
Procedure: as §1
One million ELT3 cells were transfected with 3 μg of pCMV-Luc (Invitrogen, Carlsbad, Calif.) using Nucleofection reagent (Amaxa, Gaithersburg, Md.). Cells were selected in G418 for 2 weeks, and G418 resistant clones were isolated and examined for luciferase activity.
Ten minutes prior to imaging, animals were injected with luciferin (Xenogen, Alameda, Calif.) (120 mg/kg, i.p.). Bioluminescent signals were recorded at indicated times post cell injection using Xenogen IVIS System (Xenogen). Total photon flux at the chest regions and from the dissected lungs was analyzed.

[7] = female mice, subset n=4 with primary tumors of similar size
[8] = RAD001 4 mg/kg/day by gavage, 5 days per week, in the presence of estrogen or placebo

17β-estriadiol [E2]
increase in circulating cells (ELT3 cells [1]; 6 h after i.v. injection of 2×10^5 ELT3 cells, vs placebo): 2.5 fold | increase in lung seeding of ELT3 cells (ELT3 cells [1]; lungs 24 h after i.v. injection, vs placebo): 2 fold | amount of circulating tumor cell DNA vs placebo (ELT3 cells [1]; xenograft mice, 7 weeks post-cell inoculation, tumors of similar size): striking increase | time to induced phosphorylation of p42/44 MAPK (p42/44 MAPK [2]; 10 nM E2): ≤ 15 min | time to nuclear translocation of phospho-MAPK (p42/44 MAPK [2]; nuclear and cytoplasmic fractions): ≤ 5 min | mTOR activation as measured by ribosomal protein S6 phosphorylation (ribosomal protein S6): does not affect | DNA fragmentation (ELT3 cells [3]; 10 nM E2, PolyHEMA, at 1 and 24 h, ELISA): significantly reduced | caspase-3 cleavage (ELT3 cells [3]; 10 nM E2, PolyHEMA, at 6, 16 and 24 h): reduced | 3H-thymidine incorporation after replating (ELT3 cells [3]; 24 h on PolyHEMA, 24 h after replating on adherent plates): significant increase | accumulation of Bim (ELT3 cells [3]; after 1 h in detachment conditions): decreased | phosphorylation of S6K and S6 (ELT3 cells [3]; detachment conditions, E2 stimulation): did not change | percentage of cells with primarily nuclear phospho-MAPK (p42/44 MAPK [4]): 65% | time to increased phosphorylation of C-Raf at Ser-338 (C-Raf): ≤ 2 min | average number of pulmonary metastases, size-matched subset [5, 7]: 6 metastases/mouse | mice that developed pulmonary metastases, size-matched subset [5, 7]: Three | primary tumor size, size-matched subset [5, 7]: 198±20 mm^2 | tumor size relative to placebo-treated animals ([5]; male mice, 8 weeks post-cell inoculation): 2.9 fold | average number of pulmonary metastases ([5]; male mice, 8 weeks post-inoculation): 14 metastases/mouse | mice with pulmonary metastases ([5]; male mice, 8 weeks post-inoculation, 10 of 10): 100% | mice in which tumors arose ([5]; ovariectomized female CB17-SCID mice, E2 pellets 2.5 mg 90-day release): 100% | average number of pulmonary metastases ([5]; ovariectomized female mice): 15 metastases/mouse | mice with pulmonary metastases ([5]; ovariectomized female mice, 5 of 9): 56% | mean tumor area ([5]; ovariectomized female mice, post-inoculation week 8): 287±43 mm^2 | number of Ki-67 positive cells in tumors, higher than placebo ([5]; xenograft tumors, female mice, vs placebo-treated tumors): 17% | increase in 3H-thymidine incorporation (ELT3 cells [6]): 2.8 fold | bioluminescence in chest regions, higher than placebo (ELT3-luciferase cells; 3 h post-cell injection): 2 fold | bioluminescence in chest regions, higher than placebo (ELT3-luciferase cells; 24 h post-cell injection): 5 fold

O=C(NOCC1CC1)c1ccc(F)c(F)c1Nc1ccc(I)cc1Cl [CI-1040, 2-(2-chloro-4-iodo-phenylamino)-N-cyclopropylmethoxy-3,4-difluoro-benzamide]
reduction of levels of circulating ELT3 cells in the blood (ELT3 cells [1]; E2-treated xenograft animals, CI-1040 150 mg/kg/day by gavage): 84% | tumor formation ([5]; CI-1040 150 mg/kg/day by gavage, twice a day, not statistically significant): delayed | reduction of the size of primary tumors ([5]; E2 animals, CI-1040 150 mg/kg/day by gavage, not statistically significant): 25% | lung metastases ([5]; mice treated with E2 plus CI-1040 150 mg/kg/day by gavage, 150 mg/kg/day): no lung metastases were detected; also recorded: completely blocked | decrease of bioluminescence in chest regions, E2 plus CI-1040 vs E2 (ELT3-luciferase cells; 5 h post-cell injection): 55% | reduction of bioluminescent signals in ex vivo lungs, E2 plus CI-1040 vs E2 (ELT3-luciferase cells; 60 h post-cell injection): 96%

COc1cccc(-c2cc(=O)c3ccccc3o2)c1N [PD98059]
E2-induced phosphorylation of p42/44 MAPK (p42/44 MAPK [2]; pretreatment with PD98059 (50 μM)): blocked | phosphorylation of S6K (ELT3 cells [3]; 1 h after detachment): decreased | E2-enhanced survival (3H-thymidine incorporation after replating) (ELT3 cells [3]; 24 h on PolyHEMA then replated, PD98059 treatment): blocked | estrogen's inhibition of Bim accumulation and caspase-3 cleavage (ELT3 cells [3]; preincubation, after 4 h in detachment conditions): partially blocked

CO[C@H]1C[C@@H]2CC[C@@H](C)[C@@](O)(O2)C(=O)C(=O)N2CCCC[C@H]2C(=O)O[C@H]([C@H](C)C[C@@H]2CC[C@@H](OCCO)[C@H](OC)C2)CC(=O)[C@H](C)/C=C(\C)[C@@H](O)[C@@H](OC)C(=O)[C@H](C)C[C@H](C)/C=C/C=C/C=C/1C [RAD001]
lung metastasis [5, 8]: completely blocked | primary tumor development [5, 8]: completely blocked
